Here are results for three compounds from PMC9977398, “Next-generation membrane-active glycopeptide antibiotics that also inhibit bacterial cell division” (Chemical Science, 2023).

Values after ≈ are worked out from the molar mass of the structure shown. Where two headings read alike, the source gives them in different places.

For data set [1], the system named is PA R590 (MDR strain of P. aeruginosa). Briefly: MIC determination, micro-dilution broth. Type of data set: cell-based. Here is the method: (§1) The increase in the carbon content of substituted moieties from six (1) to seven (2 and 3) to ten (5) to twelve (4), increased activity. […]
(§2) Test compound was assayed in a micro -dilution broth format as per the CLSI guideline. The bacterial freeze dried stock samples were stored at -80 °C. About 5 μL of these stocks were added to 3 mL of the respective broth and the culture was grown for 6 h at 37°C with prior to the experiments. This 6 h grown culture was diluted to give effective cell concentration of 10 5 CFU/mL which was then used for determining MIC. Compounds were serially diluted 2 -fold, in sterile millipore water and 50 μL of these serial dilutions were added to the wells of 96 well plate followed by the addition of about 150 μL of bacterial solution. The plates were then incubated for 18-24 h at 37 °C. The O.D. value at 600 nm was recorded using TECAN (Infinite series, M200 pro) Plate Reade r. Each concentration had triplicate values and the whole experiment was done at least twice and the MIC value was determined by taking the average of triplicate O. D. values for each concentration and plotting it against concentration. The data was then subjected to sigmoidal fitting. From the curve the MIC value was determined, as the point where the O. D. was similar to that of control having no bacteria.

In data set [2] the test system is MRSA, methicillin-resistant S. aureus (ATCC 33591). Briefly: MIC determination, micro-dilution broth. Type of data set: cell-based. Conditions: Staphylococcus aureus, read-out: Minimum inhibitory concentration, MRSA. How it is done:
as §1, §2

In another data set the test system is AB R674 (A. baumannii). Briefly: MIC determination, micro-dilution broth. Type of data set: cell-based. How it is done: as §1, §2
Data set [3] concerns AB 1425 (A. baumannii MTCC 1425). Briefly: MIC determination, micro-dilution broth. Type of data set: cell-based. Here is the method: as §1, §2
In another data set the test system is MRSA. Briefly: Membrane permeabilization assay, propidium iodide uptake. Type of data set: cell-based, S. aureus. Here is the method:
The kinetics of permeabilization of membranes of MRSA and B. subtilis by the compounds was measured by the uptake of propidium iodide (PI). […] When the membrane integrity is compromised, it enters the cell and fluoresces upon binding to the DNA. Both VanQbiph (4) and VanQAmC10 (8) permeabilized the membrane in a concentration-dependent manner (Fig. S2 ^†). […] They caused gradual permeabilization against the stationary phase cells of MRSA as well (Fig. 2F). The extent of permeabilization was higher for VanQAmC10 (8) than VanQbiph (4) against both the log-phase and stationary-phase bacteria similar to that observed during depolarisation.
50 μL of serially diluted compound was added into 96 well microtiter plates. Freshly drawn, heparanized human blood was centrifuged down to obtain the erythrocytes and re-suspended to 5 vol % in PBS (pH 7.4). 150 μL of the erythrocyte suspension was added to the serially diluted compounds (from 500 µM to 2 µM). One set without compound and other with 50 μL of 1 vol % solution of Triton X-100 were kept as controls. […] 100 μL of the supernatant from each well were transferred into fresh microtiter plates, and A540 was measured.
% haemolysis = (A - A0)/(Atotal -A0) × 100, where A is the absorbance of the test well, A 0 the absorbance of the negative controls (without compound), and A total the absorbance of 100 % hemolysis wells (with Triton X -100), all at 540 nm. […]
2 h post incubation with dye, the absorbance was measured at 570 nm using 600 nm as […]
The bactericidal activity of the compounds was evaluated with the time kill kinetics assay.
MRSA ATCC 33591 cells were cultured in nutrient media at 37°C for 6 h. […] The bacterial colonies were counted and results are represented in logarithmic scale, i.e. log10 (CFU/mL). […]
were added to it the wells containing bacterial suspension. Fluorescence has monitored at excitation wavelength of 535 nm (slit width: 10 nm) and emission wavelength of 617 nm (slit width: 5 nm). As a measure of inner membrane permeabilization the uptake of PI was monitor by the increase in fluorescence for 30-50 min. […]

[4] abbreviates: Pseudomonas aeruginosa, read-out: Minimum inhibitory concentration, PA R590.
The mark [5] stands for this setting: Acinetobacter baumannii, read-out: Minimum inhibitory concentration, AB R674.
The mark [6] stands for this setting: Acinetobacter baumannii, MTCC1425, read-out: Minimum inhibitory concentration, AB 1425.

On to `CCCCCCCCCCNC(=O)C[N+](C)(C)CCCNC(=O)C1NC(=O)C2NC(=O)C(NC(=O)C3NC(=O)C(CC(N)=O)NC(=O)C(NC(=O)C(CC(C)C)NC)C(O)c4ccc(c(Cl)c4)Oc4cc3cc(c4OC3OC(CO)C(O)C(O)C3OC3CC(C)(N)C(O)C(C)O3)Oc3ccc(cc3Cl)C2O)c2ccc(O)c(c2)-c2c(O)cc(O)cc21` (stereo not drawn) [VanQAmC10 (8)], for which the MIC in data set [1] (setting [4]) is 3.1 µM; in data set [2] it was 0.4 µM; with AB R674 (A. baumannii) (setting [5]), 10 µM; in data set [3] (setting [6]) it was 6.3 µM. Moreover, the “time to membrane permeabilization” value in the data set on MRSA (exponentially growing MRSA, 10 μM, PI uptake) is no more than 4 min.

On to `CN[C@H](CC(C)C)C(=O)N[C@H]1C(=O)N[C@@H](CC(N)=O)C(=O)N[C@H]2C(=O)N[C@H]3C(=O)N[C@H](C(=O)N[C@H](C(=O)O)c4cc(O)cc(O)c4-c4cc3ccc4O)[C@H](O)c3ccc(c(Cl)c3)Oc3cc2cc(c3O[C@@H]2O[C@H](CO)[C@@H](O)[C@H](O)[C@H]2O[C@H]2C[C@](C)(N)[C@H](O)[C@H](C)O2)Oc2ccc(cc2Cl)[C@H]1O` [Vancomycin, reference compound], for which the MIC in data set [1] (setting [4]) was 100 µM (≈ 145 µg/mL); in data set [2], 0.6 µM (≈ 0.87 µg/mL); in the data set on AB R674 (A. baumannii) (setting [5]) it was 100 µM (≈ 145 µg/mL); in data set [3] (setting [6]), 100 µM (≈ 145 µg/mL). In the data set with MRSA, the “effect on membrane integrity (PI uptake)” value was “does not affect the membrane integrity”.

In the case of `CNC(CC(C)C)C(=O)NC1C(=O)NC(CC(N)=O)C(=O)NC2C(=O)NC3C(=O)NC(C(=O)NC(C(=O)NCCC[N+](C)(C)Cc4ccc(-c5ccccc5)cc4)c4cc(O)cc(O)c4-c4cc3ccc4O)C(O)c3ccc(c(Cl)c3)Oc3cc2cc(c3OC2OC(CO)C(O)C(O)C2OC2CC(C)(N)C(O)C(C)O2)Oc2ccc(cc2Cl)C1O` (stereo not drawn) [VanQbiph (4)], the MIC was greater than 30 µM in data set [1] (Pseudomonas aeruginosa; read-out: Minimum inhibitory concentration, PA R590); 0.5 µM in data set [2] (MRSA ATCC 33591); 24.5 µM with AB R674 (A. baumannii) (Acinetobacter baumannii; read-out: Minimum inhibitory concentration, AB R674); 15.7 µM in data set [3] (Acinetobacter baumannii, MTCC1425; read-out: Minimum inhibitory concentration, AB 1425). For the same compound, the “effect on membrane integrity (PI uptake)” value with MRSA is “slower permeabilization”.
